Structures can show the parent of a compound that is named as a salt.
Columns and labels:
αvβ1 = αvβ1 (Homo sapiens, UniProt P05556+P06756); experiment: Solid Phase Integrin αvβ1 Assay; format: binding
Outline: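 Wells coated with 1 µg/mL recombinant TGFb1-LAP and blocked with 2% BSA/TBST, 1 mM MnCl2; αvβ1 (added at 0.2 µg/mL) and compound incubated 90 min at room temperature. Bound integrin detected by streptavidin-HRP (20 min) and TMB after Mn-containing washes; IC50 by four-parameter logistic fit.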

αvβ6 = αvβ6 (Homo sapiens, UniProt P06756+P18564); experiment: Solid Phase Integrin αvβ6 Assay; format: binding
Outline: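 Plates coated with 1 μg/mL recombinant TGFb1-LAP; compounds and αvβ6 (0.2 μg/mL diluted stock) incubated 1 h at room temperature in 2% BSA/TBST with 1 mM MnCl2. Bound integrin detected with streptavidin-HRP and TMB; IC50 from four-parameter logistic fits.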

Sequence of αvβ6 (P06756 31-992 limits assumed): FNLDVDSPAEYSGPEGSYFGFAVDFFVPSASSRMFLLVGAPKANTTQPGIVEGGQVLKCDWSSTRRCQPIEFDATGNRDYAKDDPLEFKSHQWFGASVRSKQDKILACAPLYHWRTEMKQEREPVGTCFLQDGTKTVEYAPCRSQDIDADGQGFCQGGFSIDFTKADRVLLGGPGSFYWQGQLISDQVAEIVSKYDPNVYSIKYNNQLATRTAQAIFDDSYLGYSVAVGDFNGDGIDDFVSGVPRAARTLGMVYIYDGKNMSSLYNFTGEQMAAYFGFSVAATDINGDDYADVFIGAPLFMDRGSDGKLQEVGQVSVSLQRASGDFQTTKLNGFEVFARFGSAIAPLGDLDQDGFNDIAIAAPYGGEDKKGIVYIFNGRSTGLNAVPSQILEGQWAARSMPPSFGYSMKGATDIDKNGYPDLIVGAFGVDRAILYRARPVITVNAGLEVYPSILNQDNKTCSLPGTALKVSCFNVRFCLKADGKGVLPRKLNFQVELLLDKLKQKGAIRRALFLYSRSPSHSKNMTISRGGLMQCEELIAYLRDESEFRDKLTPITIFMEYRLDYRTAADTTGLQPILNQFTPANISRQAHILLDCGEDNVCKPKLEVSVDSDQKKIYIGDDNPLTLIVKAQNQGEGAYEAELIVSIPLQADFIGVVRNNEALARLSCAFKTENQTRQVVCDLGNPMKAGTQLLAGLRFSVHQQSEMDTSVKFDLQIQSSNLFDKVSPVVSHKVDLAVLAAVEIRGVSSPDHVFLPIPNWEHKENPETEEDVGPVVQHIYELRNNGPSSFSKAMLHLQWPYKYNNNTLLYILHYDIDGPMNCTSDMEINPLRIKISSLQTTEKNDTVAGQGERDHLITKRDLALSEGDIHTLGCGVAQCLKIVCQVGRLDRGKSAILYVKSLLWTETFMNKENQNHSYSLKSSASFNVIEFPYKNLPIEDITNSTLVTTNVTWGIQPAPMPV
Sequence of αvβ6 (P18564 22-707 limits assumed): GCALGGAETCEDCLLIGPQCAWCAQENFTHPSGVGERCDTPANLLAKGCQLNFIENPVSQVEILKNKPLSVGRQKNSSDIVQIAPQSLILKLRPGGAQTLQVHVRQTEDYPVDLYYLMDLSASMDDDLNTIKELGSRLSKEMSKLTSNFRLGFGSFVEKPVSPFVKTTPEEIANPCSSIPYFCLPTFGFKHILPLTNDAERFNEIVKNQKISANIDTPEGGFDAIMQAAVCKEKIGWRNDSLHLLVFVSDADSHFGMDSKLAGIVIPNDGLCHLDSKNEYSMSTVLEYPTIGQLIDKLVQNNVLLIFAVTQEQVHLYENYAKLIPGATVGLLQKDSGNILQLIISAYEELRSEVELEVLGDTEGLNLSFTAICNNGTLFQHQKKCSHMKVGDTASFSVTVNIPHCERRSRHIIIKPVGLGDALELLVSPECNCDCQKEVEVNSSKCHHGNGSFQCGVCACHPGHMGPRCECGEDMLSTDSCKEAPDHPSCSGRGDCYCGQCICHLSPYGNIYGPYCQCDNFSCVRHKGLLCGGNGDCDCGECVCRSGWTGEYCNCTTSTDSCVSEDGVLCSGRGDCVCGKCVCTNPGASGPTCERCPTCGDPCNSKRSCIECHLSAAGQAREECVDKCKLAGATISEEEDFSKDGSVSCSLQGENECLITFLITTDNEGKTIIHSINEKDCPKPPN
Sequence of αvβ1 (P06756 31-992 limits assumed): as the sequence (P06756 31-992 limits assumed) above
Sequence of αvβ1 (P05556 21-728 limits assumed): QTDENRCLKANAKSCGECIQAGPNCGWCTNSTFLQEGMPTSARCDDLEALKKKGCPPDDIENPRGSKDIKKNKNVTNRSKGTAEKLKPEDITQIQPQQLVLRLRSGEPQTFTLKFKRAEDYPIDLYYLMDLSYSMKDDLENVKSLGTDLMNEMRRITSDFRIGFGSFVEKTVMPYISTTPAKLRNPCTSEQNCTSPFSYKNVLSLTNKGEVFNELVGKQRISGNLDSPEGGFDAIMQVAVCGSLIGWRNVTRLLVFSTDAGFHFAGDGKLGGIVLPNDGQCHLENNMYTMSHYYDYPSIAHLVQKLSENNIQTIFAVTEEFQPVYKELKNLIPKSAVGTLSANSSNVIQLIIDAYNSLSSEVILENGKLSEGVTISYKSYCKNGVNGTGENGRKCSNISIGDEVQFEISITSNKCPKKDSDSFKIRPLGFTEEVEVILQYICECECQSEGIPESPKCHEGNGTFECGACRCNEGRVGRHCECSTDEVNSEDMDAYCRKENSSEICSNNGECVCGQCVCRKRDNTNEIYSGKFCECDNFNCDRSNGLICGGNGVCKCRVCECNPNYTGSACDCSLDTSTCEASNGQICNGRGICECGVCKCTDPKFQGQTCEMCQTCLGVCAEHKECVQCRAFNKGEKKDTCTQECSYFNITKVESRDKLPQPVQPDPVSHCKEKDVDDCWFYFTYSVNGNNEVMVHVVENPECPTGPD

Compound | IC50 (αvβ1) [nM] | IC50 (αvβ6) [nM]
O=C(NC[C@H](C(=O)O)c1cccc(-c2ccccc2)c1)[C@@H]1CCCN(CCCc2ccc3c(n2)NCCC3)C1 [Compound 256-B, 2-([1,1′-biphenyl]-3-yl)-3-((R)-1-(3-(5,6,7,8-tetrahydro-1,8-naphthyridin-2-yl)propyl)piperidine-3-carboxamido)propanoic acid] | < 100 | < 100
O=C(NC[C@H](C(=O)O)c1cccc(C(F)(F)F)c1)[C@@H]1CCCN(CCCc2ccc3c(n2)NCCC3)C1 [Compound 252-B, 3-((R)-1-(3-(5,6,7,8-tetrahydro-1,8-naphthyridin-2-yl)propyl)piperidine-3-carboxamido)-2-(3-(trifluoromethyl)phenyl)propanoic acid] | > 1000 | < 100
O=C(O)C[C@@H](CO[C@@H]1CCCN(Cc2ccc3c(n2)NCCC3)C1)c1ccccc1 [Compound 355] | 100 to 1000 | > 1000
O=C(O)C[C@@H](CO[C@@H]1CCCN(CCCc2ccc3c(n2)NCCC3)C1)c1ccnc(C2CC2)c1 [Compound 514] | < 100 | < 100
Cc1cc([C@H](CO[C@@H]2CCCN(CCCc3ccc4c(n3)NCCC4)C2)CC(=O)O)cc(N2CCOC(C)(C)C2)c1 [Compound 581] | 100 to 1000 | 100 to 1000
O=C(O)C[C@@H](NC(=O)[C@@H]1CCCN(CCCc2ccc3c(n2)NCCC3)C1)c1cccc(C2CC2)c1F [Compound 344] | < 100 | < 100
O=C(O)C[C@H](NC(=O)[C@@H]1CCCN(CCCc2ccc3c(n2)NCCC3)C1)c1cccc(Br)c1 [Compound 205, (S)-3-(3-bromophenyl)-3-((R)-1-(3-(5,6,7,8-tetrahydro-1,8-naphthyridin-2-yl)propyl)piperidine-3-carboxamido)propanoic acid hydrochloride] | < 100 | < 100
O=C(NC[C@@H](C(=O)O)c1ccc(F)c(-c2ccccc2)c1F)[C@@H]1CCCN(CCCc2ccc3c(n2)NCCC3)C1 [Compound 626] | < 100 | < 100
O=C(N[C@@H](CNC(=O)[C@@H]1CCCN(CCCc2ccc3c(n2)NCCC3)C1)C(=O)O)c1ccc(Cl)c(Cl)c1 [Compound 368] | < 100 | < 100
O=C(O)C[C@H](NC(=O)[C@@H]1CCCN(CCCc2ccc3c(n2)NCCC3)C1)c1ccc2c(c1)OCO2 [Compound 214, (S)-3-(benzo[d][1,3]dioxol-5-yl)-3-((R)-1-(3-(5,6,7,8-tetrahydro-1,8-naphthyridin-2-yl)propyl)piperidine-3-carboxamido)propanoic acid] | < 100 | < 100
O=C(CC[C@H](NC(=O)C12CCC(CC1)CC2)C(=O)O)N[C@@H]1CCN(CCCCc2ccc3c(n2)NCCC3)C1 [Compound 426] | < 100 | < 100
O=C(O)C[C@H](NC(=O)[C@H]1CCCN(CCCc2ccc3c(n2)NCCC3)C1)c1ccccc1 [Compound 523] | 100 to 1000 | < 100
O=C(NC[C@H](C(=O)O)c1cccc2c1CCC2)[C@@H]1CCCN(CCCc2ccc3c(n2)NCCC3)C1 [Compound 560] | 100 to 1000 | 100 to 1000
O=C(N[C@@H](CNC(=O)[C@@H]1CCCN(CCCc2ccc3c(n2)NCCC3)C1)C(=O)O)c1ccc(C2CC2)cc1 [Compound 369] | < 100 | < 100
O=C(N[C@@H](CNC(=O)[C@@H]1CCCN(CCCc2ccc3c(n2)NCCC3)C1)C(=O)O)c1nnc(C2CC2)o1 [Compound 313] | < 100 | < 100

Second part, the molecule after the results:

IC50 (αvβ1) [nM] | IC50 (αvβ6) [nM] | Compound
100 to 1000 | > 1000 | O=C(CC[C@@H](NC(=O)[C@H]1CCCN1S(=O)(=O)c1ccccc1)C(=O)O)N[C@H]1CCN(CCCCc2ccc3c(n2)NCCC3)C1 [Compound 436]
< 100 | < 100 | O=C(O)C[C@H](NC(=O)[C@@H]1CCCN(CCCc2ccc3c(n2)NCCC3)C1)c1cnc2ccccc2n1 [Compound 539]
100 to 1000 | < 100 | O=C(O)[C@H](CCO[C@@H]1CCCN(CCCc2ccc3c(n2)NCCC3)C1)Nc1ncnc2cc(F)c(F)cc12 [Compound 474]
> 1000 | > 1000 | O=C(O)C[C@@H](NC(=O)[C@@H]1CCCN(CCCc2ccc3c(n2)NCCC3)C1)c1cccc2c1CCCO2 [Compound 216-B, 3-(chroman-5-yl)-3-((R)-1-(3-(5,6,7,8-tetrahydro-1,8-naphthyridin-2-yl)propyl)piperidine-3-carboxamido)propanoic acid]
< 100 | < 100 | O=C(NC[C@@H](C(=O)O)c1cccc(C2CC2)c1)[C@@H]1CCCN(CCCc2ccc3c(n2)NCCC3)C1 [Compound 258-B, 2-(3-cyclopropylphenyl)-3-((R)-1-(3-(5,6,7,8-tetrahydro-1,8-naphthyridin-2-yl)propyl)piperidine-3-carboxamido)propanoic acid]
> 1000 | > 1000 | O=C(N[C@H](CCO[C@@H]1CCCN(CCCc2ccc3c(n2)NCCC3)C1)C(=O)O)c1c(F)cc(N2CCOC[C@@H]2C(F)(F)F)cc1F [Compound 494]
< 100 | < 100 | CC1(C)CN(c2cccc([C@H](CC(=O)O)NC(=O)[C@@H]3CCCN(CCCc4ccc5c(n4)NCCC5)C3)c2)CC(C)(C)C1 [Compound 587]
100 to 1000 | 100 to 1000 | CN(CC1(C)CCCCC1)[C@@H](CNC(=O)[C@@H]1CCCN(CCCc2ccc3c(n2)NCCC3)C1)C(=O)O [Compound 527]
< 100 | 100 to 1000 | O=C(NC[C@@H](C(=O)O)c1cccc(C(F)(F)F)c1)[C@@H]1CCCN(CCCc2ccc3c(n2)NCCC3)C1 [Compound 252-A, 3-((R)-1-(3-(5,6,7,8-tetrahydro-1,8-naphthyridin-2-yl)propyl)piperidine-3-carboxamido)-2-(3-(trifluoromethyl)phenyl)propanoic acid]
> 1000 | > 1000 | O=C(NC[C@H](C(=O)O)c1ccccc1-c1ccccc1)[C@@H]1CCCN(CCCc2ccc3c(n2)NCCC3)C1 [Compound 341]
< 100 | < 100 | O=C(O)C[C@@H](CO[C@@H]1CCCN(CCCc2ccc3c(n2)NCCC3)C1)c1cc(F)cc(C2CC2)c1 [Compound 519]
< 100 | > 1000 | O=C(CC[C@@H](NC(=O)[C@@H]1CCCN1S(=O)(=O)c1ccccc1)C(=O)O)N[C@H]1CCN(C(=O)CCCc2ccc3c(n2)NCCC3)C1 [Compound 441]
< 100 | < 100 | O=C(O)[C@H](CCO[C@@H]1CCCN(CCCc2ccc3c(n2)NCCC3)C1)NC(=O)[C@@H]1CCCN1S(=O)(=O)c1ccccc1 [Compound 476]
< 100 | < 100 | C[C@@H]1CN(c2cccc([C@@H](CNC(=O)[C@@H]3CCCN(CCCc4ccc5c(n4)NCCC5)C3)C(=O)O)c2)C[C@H](C)O1 [Compound 604]
100 to 1000 | < 100 | O=C(O)C[C@H](NC(=O)[C@@H]1CN(CCCc2ccc3c(n2)NCCC3)CC(F)(F)C1)c1ccccc1 [Compound 291-A, (3S)-3-(5,5-difluoro-1-(3-(5,6,7,8-tetrahydro-1,8-naphthyridin-2-yl)propyl)piperidine-3-carboxamido)-3-phenylpropanoic acid]

— US20240208968A1, “ALPHA V BETA 6 AND ALPHA V BETA 1 INTEGRIN INHIBITORS AND USES THEREOF” (DiCE Molecules SV, Inc., priority 2021, published 2024)
